Test results: ChEMBL document CHEMBL1649268, “Comparative in vitro activity profile of oritavancin against recent gram-positive clinical isolates” (2009)
In brackets after ≈: the same amount, converted by molar mass.

Columns and labels:
Assay type in all cases: functional
[1] = system: Enterococcus faecalis; assay: Antimicrobial activity against Enterococcus faecalis expressing VanA gene clinical isolates by broth microdilution method
[2] = system: Enterococcus faecalis; assay: Antimicrobial activity against vancomycin-nonsusceptible Enterococcus faecalis clinical isolates assessed as percent susceptible isolates by broth microdilution method
[3] = system: Enterococcus faecium; assay: Antimicrobial activity against vancomycin-nonsusceptible Enterococcus faecium clinical isolates by broth microdilution method
[4] = system: Enterococcus faecalis; assay: Antimicrobial activity against vancomycin-susceptible Enterococcus faecalis clinical isolates assessed as resistant isolates by broth microdilution method
[5] = system: Enterococcus faecalis; assay: Antimicrobial activity against Enterococcus faecalis expressing VanA gene clinical isolates assessed as percent susceptible isolates by broth microdilution method
[6] = system: Enterococcus faecium; assay: Antimicrobial activity against vancomycin-nonsusceptible Enterococcus faecium clinical isolates assessed as percent susceptible isolates by broth microdilution method
[7] = system: Enterococcus faecium; assay: Antimicrobial activity against Enterococcus faecium expressing VanA gene clinical isolates assessed as percent susceptible isolates by broth microdilution method
[8] = system: Enterococcus faecium; assay: Antimicrobial activity against Enterococcus faecium clinical isolates assessed as percent susceptible isolates by broth microdilution method
[9] = system: Enterococcus faecalis; assay: Antimicrobial activity against Enterococcus faecalis clinical isolates by broth microdilution method
[10] = system: Enterococcus faecalis; assay: Antimicrobial activity against Enterococcus faecalis expressing VanB gene clinical isolates by broth microdilution method
[11] = system: Enterococcus faecium; assay: Antimicrobial activity against vancomycin-susceptible Enterococcus faecium clinical isolates by broth microdilution method
[12] = system: Enterococcus faecalis; assay: Antimicrobial activity against Enterococcus faecalis expressing VanB gene clinical isolates assessed as resistant isolates by broth microdilution method
[13] = system: Enterococcus faecium; assay: Antimicrobial activity against Enterococcus faecium expressing VanB gene clinical isolates assessed as resistant isolates by broth microdilution method
[14] = system: Enterococcus faecium; assay: Antimicrobial activity against Enterococcus faecium clinical isolates by broth microdilution method
[15] = system: Enterococcus faecium; assay: Antimicrobial activity against Enterococcus faecium expressing VanA gene clinical isolates by broth microdilution method
[16] = system: Enterococcus faecium; assay: Antimicrobial activity against vancomycin-nonsusceptible Enterococcus faecium clinical isolates assessed as resistant isolates by broth microdilution method
[17] = system: Enterococcus faecalis; assay: Antimicrobial activity against vancomycin-susceptible Enterococcus faecalis clinical isolates by broth microdilution method
[18] = system: Enterococcus faecium; assay: Antimicrobial activity against vancomycin-susceptible Enterococcus faecium clinical isolates assessed as resistant isolates by broth microdilution method
[19] = system: Enterococcus faecalis; assay: Antimicrobial activity against Enterococcus faecalis expressing VanB gene clinical isolates assessed as percent susceptible isolates by broth microdilution method
[20] = system: Enterococcus faecalis; assay: Antimicrobial activity against vancomycin-nonsusceptible Enterococcus faecalis clinical isolates assessed as resistant isolates by broth microdilution method
[21] = system: Enterococcus faecalis; assay: Antimicrobial activity against vancomycin-susceptible Enterococcus faecalis clinical isolates assessed as percent susceptible isolates by broth microdilution method
[22] = system: Enterococcus faecalis; assay: Antimicrobial activity against Enterococcus faecalis clinical isolates assessed as resistant isolates by broth microdilution method
[23] = system: Enterococcus faecalis; assay: Antimicrobial activity against vancomycin-nonsusceptible Enterococcus faecalis clinical isolates by broth microdilution method
[24] = system: Enterococcus faecium; assay: Antimicrobial activity against Enterococcus faecium expressing VanB gene clinical isolates by broth microdilution method
[25] = system: Enterococcus faecalis; assay: Antimicrobial activity against Enterococcus faecalis expressing VanA gene clinical isolates assessed as resistant isolates by broth microdilution method
[26] = system: Enterococcus faecalis; assay: Antimicrobial activity against Enterococcus faecalis clinical isolates assessed as percent susceptible isolates by broth microdilution method
[27] = system: Enterococcus faecium; assay: Antimicrobial activity against Enterococcus faecium expressing VanA gene clinical isolates assessed as resistant isolates by broth microdilution method
[28] = system: Enterococcus faecium; assay: Antimicrobial activity against Enterococcus faecium clinical isolates assessed as resistant isolates by broth microdilution method
[29] = system: Enterococcus faecium; assay: Antimicrobial activity against Enterococcus faecium expressing VanB gene clinical isolates assessed as percent susceptible isolates by broth microdilution method
[30] = system: Enterococcus faecium; assay: Antimicrobial activity against vancomycin-susceptible Enterococcus faecium clinical isolates assessed as percent susceptible isolates by broth microdilution method
[31] = system: Streptococcus pneumoniae; assay: Antimicrobial activity against penicillin-resistant Streptococcus pneumoniae clinical isolates assessed as percent susceptible isolates by broth microdilution method
[32] = system: Streptococcus pneumoniae; assay: Antimicrobial activity against penicillin-resistant Streptococcus pneumoniae clinical isolates by broth microdilution method
[33] = system: Streptococcus pneumoniae; assay: Antimicrobial activity against penicillin-susceptible Streptococcus pneumoniae clinical isolates assessed as resistant isolates by broth microdilution method
[34] = system: Streptococcus pneumoniae; assay: Antimicrobial activity against Streptococcus pneumoniae clinical isolates assessed as percent susceptible isolates by broth microdilution method
[35] = system: Streptococcus pneumoniae; assay: Antimicrobial activity against Streptococcus pneumoniae clinical isolates by broth microdilution method
[36] = system: Streptococcus pneumoniae; assay: Antimicrobial activity against penicillin-intermediate Streptococcus pneumoniae clinical isolates assessed as percent susceptible isolates by broth microdilution method
[37] = system: Streptococcus pneumoniae; assay: Antimicrobial activity against Streptococcus pneumoniae clinical isolates assessed as resistant isolates by broth microdilution method
[38] = system: Streptococcus pneumoniae; assay: Antimicrobial activity against penicillin-susceptible Streptococcus pneumoniae clinical isolates assessed as percent susceptible isolates by broth microdilution method
[39] = system: Streptococcus pneumoniae; assay: Antimicrobial activity against penicillin-susceptible Streptococcus pneumoniae clinical isolates by broth microdilution method
[40] = system: Streptococcus pneumoniae; assay: Antimicrobial activity against penicillin-intermediate Streptococcus pneumoniae clinical isolates by broth microdilution method
[41] = system: Streptococcus pneumoniae; assay: Antimicrobial activity against penicillin-resistant Streptococcus pneumoniae clinical isolates assessed as resistant isolates by broth microdilution method
[42] = system: Streptococcus pneumoniae; assay: Antimicrobial activity against penicillin-intermediate Streptococcus pneumoniae clinical isolates assessed as resistant isolates by broth microdilution method

GENTAMICIN
MIC [1]: > 500 µg/mL | MIC90 [1]: > 500 µg/mL | Activity [2]: 19.5% | MIC [3]: > 500 µg/mL | MIC90 [3]: > 500 µg/mL | Activity [4]: 32.2% | Activity [5]: 16.9% | Activity [6]: 63.3% | Activity [7]: 62.9% | Activity [8]: 68.3% | MIC [9]: > 500 µg/mL | MIC90 [9]: > 500 µg/mL | MIC [10]: > 500 µg/mL | MIC90 [10]: > 500 µg/mL | MIC [11]: > 500 µg/mL | MIC90 [11]: > 500 µg/mL | Activity [12]: 70.6% | Activity [13]: 24.1% | MIC [14]: > 500 µg/mL | MIC90 [14]: > 500 µg/mL | MIC [15]: > 500 µg/mL | MIC90 [15]: > 500 µg/mL | Activity [16]: 36.7% | MIC [17]: > 500 µg/mL | MIC90 [17]: > 500 µg/mL | Activity [18]: 25.1% | Activity [19]: 29.4% | Activity [20]: 80.5% | Activity [21]: 67.8% | Activity [22]: 34.6% | MIC [23]: > 500 µg/mL | MIC90 [23]: > 500 µg/mL | MIC [24]: > 500 µg/mL | MIC90 [24]: > 500 µg/mL | Activity [25]: 83.1% | Activity [26]: 65.4% | Activity [27]: 37.1% | Activity [28]: 31.7% | Activity [29]: 75.9% | Activity [30]: 74.9%

CO/N=C(\C(=O)N[C@@H]1C(=O)N2C(C(=O)OC(C)OC(C)=O)=C(COC(N)=O)CS[C@H]12)c1ccco1 (stereo partly drawn) [CEFUROXIME AXETIL]
Activity [31]: 0% | MIC90 [32]: > 4 µg/mL | Percent of isolates resistant [33]: 0% | Activity [34]: 75.9% | MIC90 [35]: 4 µg/mL (≈ 7.84 µM) | Activity [36]: 56% | Resistant isolates [37]: 18.9% | Activity [38]: 100% | MIC [39]: ≤ 0.12 µg/mL | MIC90 [39]: ≤ 0.12 µg/mL | MIC90 [40]: 4 µg/mL (≈ 7.84 µM) | Percent of isolates resistant [41]: 99.3% | Percent of isolates resistant [42]: 20.4%

CC1(C)S[C@@H]2[C@H](NC(=O)[C@H](N)c3ccccc3)C(=O)N2[C@H]1C(=O)O [AMPICILLIN]
MIC90 [1]: 2 µg/mL (≈ 5.72 µM) | Activity [2]: 100% | MIC90 [3]: > 256 µg/mL | Activity [4]: 0.1% | Activity [5]: 100% | Activity [6]: 1.5% | Activity [7]: 1% | Activity [8]: 12.7% | MIC90 [9]: 1 µg/mL (≈ 2.86 µM) | MIC90 [10]: 2 µg/mL (≈ 5.72 µM) | MIC90 [11]: 256 µg/mL (≈ 733 µM) | Activity [12]: 0% | Activity [13]: 96.6% | MIC90 [14]: > 256 µg/mL | MIC90 [15]: > 256 µg/mL | Activity [16]: 98.5% | MIC90 [17]: 1 µg/mL (≈ 2.86 µM) | Activity [18]: 72.3% | Activity [19]: 100% | Activity [20]: 0% | Activity [21]: 99.9% | Activity [22]: 0.1% | MIC90 [23]: 2 µg/mL (≈ 5.72 µM) | MIC90 [24]: > 256 µg/mL | Activity [25]: 0% | Activity [26]: 99.9% | Activity [27]: 99% | Activity [28]: 87.3% | Activity [29]: 3.4% | Activity [30]: 27.7%
